Source: ChEMBL document CHEMBL4052645, “Discovery of potent and efficacious pyrrolopyridazines as dual JAK1/3 inhibitors” (Bioorg Med Chem Lett, 2017)

Experiments:
[1] = molecular target: Dual specificity protein kinase CLK1 (Homo sapiens) (UniProt P49759); assay: Inhibition of wild-type human full length CLK1 (M1 to I484 residues) expressed in bacterial expression system assessed as residual activity at 50 nM by Kinomescan method relative to control
[2] = molecular target: Cyclin-dependent kinase-like 5 (Homo sapiens) (UniProt O76039); assay: Inhibition of wild-type human partial length CDKL5 (M1 to S337 residues) expressed in mammalian expression system assessed as residual activity at 50 nM by Kinomescan method relative to control
[3] = molecular target: cAMP-dependent protein kinase catalytic subunit PRKX (Homo sapiens) (UniProt P51817); assay: Inhibition of wild-type human partial length PRKX (M1 to F358 residues) expressed in bacterial expression system assessed as residual activity at 50 nM by Kinomescan method relative to control
[4] = molecular target: Serine/threonine-protein kinase Nek9 (Homo sapiens) (UniProt Q8TD19); assay: Inhibition of wild-type human partial length NEK9 (P32 to R328 residues) expressed in bacterial expression system assessed as residual activity at 50 nM by Kinomescan method relative to control
[5] = molecular target: Insulin receptor-related protein (Homo sapiens) (UniProt P14616); assay: Inhibition of wild-type human partial length IRR (R950 to E1278 residues) expressed in bacterial expression system assessed as residual activity at 50 nM by Kinomescan method relative to control
[6] = molecular target: Mitogen-activated protein kinase kinase kinase 19 (Homo sapiens) (UniProt Q56UN5); assay: Inhibition of wild-type human partial length YSK4 (T1019 to H1328 residues) expressed in mammalian expression system assessed as residual activity at 50 nM by Kinomescan method relative to control
[7] = molecular target: Interleukin-1 receptor-associated kinase 1 (Homo sapiens) (UniProt P51617); assay: Inhibition of wild-type human partial length IRAK1 (R194 to S712 residues) expressed in mammalian expression system assessed as residual activity at 50 nM by Kinomescan method relative to control
[8] = molecular target: Serine/threonine-protein kinase mTOR (Homo sapiens) (UniProt P42345); assay: Inhibition of wild-type human partial length MTOR (L1382 to W2549 residues) expressed in mammalian expression system assessed as residual activity at 50 nM by Kinomescan method relative to control
[9] = molecular target: Serine/threonine-protein kinase TBK1 (Homo sapiens) (UniProt Q9UHD2); assay: Inhibition of wild-type human full length TBK1 (M1 to L729 residues) expressed in mammalian expression system assessed as residual activity at 50 nM by Kinomescan method relative to control
[10] = molecular target: Casein kinase I isoform delta (Homo sapiens) (UniProt P48730); assay: Inhibition of wild-type human full length CK1D (M1 to K409 residues) expressed in bacterial expression system assessed as residual activity at 50 nM by Kinomescan method relative to control
[11] = molecular target: BMP-2-inducible protein kinase (Homo sapiens) (UniProt Q9NSY1); assay: Inhibition of human BIKE (S34 to N329 residues) expressed in bacterial expression system assessed as residual activity at 50 nM by KINOMEscan assay relative to control
[12] = molecular target: Serine/threonine-protein kinase Nek2 (Homo sapiens) (UniProt P51955); assay: Inhibition of wild-type human partial length NEK2 (M1 to K309 residues) expressed in bacterial expression system assessed as residual activity at 50 nM by Kinomescan method relative to control
[13] = molecular target: Cyclin-dependent kinase-like 3 (Homo sapiens) (UniProt Q8IVW4); assay: Inhibition of wild-type human partial length CDKL3 (M1 to D327 residues) expressed in bacterial expression system assessed as residual activity at 50 nM by Kinomescan method relative to control
[14] = molecular target: Serine/threonine-protein kinase PLK3 (Homo sapiens) (UniProt Q9H4B4); assay: Inhibition of wild-type human partial length PLK3 (A42 to L334 residues) expressed in mammalian expression system assessed as residual activity at 50 nM by Kinomescan method relative to control
[15] = molecular target: Phosphorylase b kinase gamma catalytic chain, liver/testis isoform (Homo sapiens) (UniProt P15735); assay: Inhibition of wild-type human partial length PHKG2 (M1 to W300 residues) expressed in bacterial expression system assessed as residual activity at 50 nM by Kinomescan method relative to control
[16] = molecular target: Ephrin type-A receptor 3 (Homo sapiens) (UniProt P29320); assay: Inhibition of wild-type human partial length EPHA3 (D604 to K889 residues) expressed in bacterial expression system assessed as residual activity at 50 nM by Kinomescan method relative to control
[17] = molecular target: Insulin receptor (Homo sapiens) (UniProt P06213); assay: Inhibition of wild-type human partial length INSR (P997 to E1318 residues) expressed in mammalian expression system assessed as residual activity at 50 nM by Kinomescan method relative to control
[18] = molecular target: Protein-tyrosine kinase 6 (Homo sapiens) (UniProt Q13882); assay: Inhibition of wild-type human partial length BRK (L166 to T451 residues) expressed in bacterial expression system assessed as residual activity at 50 nM by Kinomescan method relative to control
[19] = molecular target: Cyclin-dependent kinase 4/cyclin D1 (Homo sapiens) (UniProt P11802+P24385); assay: Inhibition of wild-type human full length CDK4/cyclinD1 (M1 to E303 residues) expressed in mammalian expression system assessed as residual activity at 50 nM by Kinomescan method relative to control
[20] = molecular target: Mitogen-activated protein kinase kinase kinase 4 (Homo sapiens) (UniProt Q9Y6R4); assay: Inhibition of wild-type human partial length MAP3K4 ([…] residues) expressed in mammalian expression system assessed as residual activity at 50 nM by Kinomescan method relative to control
[21] = molecular target: Cyclin-dependent kinase 14 (Homo sapiens) (UniProt O94921); assay: Inhibition of wild-type human full length PFTAIRE1 (M1 to H451 residues) expressed in bacterial expression system assessed as residual activity at 50 nM by Kinomescan method relative to control
[22] = molecular target: Serine/threonine-protein kinase TAO2 (Homo sapiens) (UniProt Q9UL54); assay: Inhibition of wild-type human partial length TAO2 (M1 to A320 residues) expressed in mammalian expression system assessed as residual activity at 50 nM by Kinomescan method relative to control
[23] = molecular target: SNF-related serine/threonine-protein kinase (Homo sapiens) (UniProt Q9NRH2); assay: Inhibition of wild-type human partial length SNRK (M1 to E339 residues) expressed in mammalian expression system assessed as residual activity at 50 nM by Kinomescan method relative to control
[24] = molecular target: Serine/threonine-protein kinase tousled-like 2 (Homo sapiens) (UniProt Q86UE8); assay: Inhibition of wild-type human partial length TLK2 (E424 to N749 residues) expressed in bacterial expression system assessed as residual activity at 50 nM by Kinomescan method relative to control
[25] = molecular target: Phosphatidylinositol 4-kinase beta (Homo sapiens) (UniProt Q9UBF8); assay: Inhibition of wild-type human full length PIK4CB (M1 to M828 residues) expressed in mammalian expression system assessed as residual activity at 50 nM by Kinomescan method relative to control

Cyclin-dependent kinase-like 3 (Homo sapiens), sequence (Q8IVW4 whole entry, looked up, the tested form may be a part): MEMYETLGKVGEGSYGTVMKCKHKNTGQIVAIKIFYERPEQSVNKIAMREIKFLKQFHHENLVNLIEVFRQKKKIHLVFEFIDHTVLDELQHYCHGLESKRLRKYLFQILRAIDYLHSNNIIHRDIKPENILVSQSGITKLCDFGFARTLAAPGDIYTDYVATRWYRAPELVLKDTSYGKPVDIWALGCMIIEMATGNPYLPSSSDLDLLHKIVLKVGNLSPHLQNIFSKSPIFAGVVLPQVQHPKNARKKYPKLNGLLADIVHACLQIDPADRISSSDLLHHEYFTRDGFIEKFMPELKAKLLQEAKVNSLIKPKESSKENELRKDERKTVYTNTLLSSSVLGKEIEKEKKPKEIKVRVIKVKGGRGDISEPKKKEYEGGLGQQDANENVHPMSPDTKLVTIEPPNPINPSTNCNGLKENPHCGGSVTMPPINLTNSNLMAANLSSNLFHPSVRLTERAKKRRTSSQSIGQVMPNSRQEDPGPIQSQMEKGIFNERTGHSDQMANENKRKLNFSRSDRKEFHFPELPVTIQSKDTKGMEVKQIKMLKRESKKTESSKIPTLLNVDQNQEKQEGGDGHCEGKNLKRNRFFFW
Cyclin-dependent kinase-like 5 (Homo sapiens), sequence (O76039 whole entry, the tested form may be a part): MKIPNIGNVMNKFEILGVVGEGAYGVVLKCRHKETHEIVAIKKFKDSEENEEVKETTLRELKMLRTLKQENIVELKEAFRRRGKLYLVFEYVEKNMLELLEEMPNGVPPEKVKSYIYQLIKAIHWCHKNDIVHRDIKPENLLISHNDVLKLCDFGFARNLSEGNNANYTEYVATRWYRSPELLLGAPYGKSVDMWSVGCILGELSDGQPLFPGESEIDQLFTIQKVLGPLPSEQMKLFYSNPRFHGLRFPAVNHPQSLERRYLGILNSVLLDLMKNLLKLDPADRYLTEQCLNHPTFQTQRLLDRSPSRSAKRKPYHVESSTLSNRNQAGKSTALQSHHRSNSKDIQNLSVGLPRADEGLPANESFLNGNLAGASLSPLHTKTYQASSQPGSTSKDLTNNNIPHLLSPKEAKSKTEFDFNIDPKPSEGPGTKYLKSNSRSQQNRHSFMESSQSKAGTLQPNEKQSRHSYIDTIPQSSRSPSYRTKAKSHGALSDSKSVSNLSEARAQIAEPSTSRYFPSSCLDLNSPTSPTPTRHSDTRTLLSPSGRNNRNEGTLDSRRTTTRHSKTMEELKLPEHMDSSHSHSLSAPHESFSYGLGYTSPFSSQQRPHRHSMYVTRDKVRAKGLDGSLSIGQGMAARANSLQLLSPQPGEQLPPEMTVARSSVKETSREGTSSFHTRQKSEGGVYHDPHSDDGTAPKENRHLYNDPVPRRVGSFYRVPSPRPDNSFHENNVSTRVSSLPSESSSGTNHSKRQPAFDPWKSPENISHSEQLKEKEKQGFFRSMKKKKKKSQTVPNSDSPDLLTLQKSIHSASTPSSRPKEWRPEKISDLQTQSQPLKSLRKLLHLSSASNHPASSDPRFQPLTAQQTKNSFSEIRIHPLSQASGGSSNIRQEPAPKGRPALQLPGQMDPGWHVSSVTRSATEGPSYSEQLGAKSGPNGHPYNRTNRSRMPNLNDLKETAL
Phosphorylase b kinase gamma catalytic chain, liver/testis isoform (Homo sapiens), sequence (P15735 whole entry, the tested form may be a part, canonical isoform): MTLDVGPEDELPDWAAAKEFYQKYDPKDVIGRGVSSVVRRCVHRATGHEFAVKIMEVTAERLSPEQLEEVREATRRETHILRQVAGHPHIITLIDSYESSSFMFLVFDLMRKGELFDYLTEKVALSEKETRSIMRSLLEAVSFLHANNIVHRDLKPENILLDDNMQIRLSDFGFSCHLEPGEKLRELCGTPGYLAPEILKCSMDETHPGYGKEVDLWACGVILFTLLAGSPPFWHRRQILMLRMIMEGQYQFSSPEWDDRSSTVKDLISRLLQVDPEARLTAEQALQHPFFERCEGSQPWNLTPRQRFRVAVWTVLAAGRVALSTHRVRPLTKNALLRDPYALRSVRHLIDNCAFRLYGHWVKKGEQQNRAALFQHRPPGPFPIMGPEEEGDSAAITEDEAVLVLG
Insulin receptor (Homo sapiens), sequence (P06213 28-758 limits assumed): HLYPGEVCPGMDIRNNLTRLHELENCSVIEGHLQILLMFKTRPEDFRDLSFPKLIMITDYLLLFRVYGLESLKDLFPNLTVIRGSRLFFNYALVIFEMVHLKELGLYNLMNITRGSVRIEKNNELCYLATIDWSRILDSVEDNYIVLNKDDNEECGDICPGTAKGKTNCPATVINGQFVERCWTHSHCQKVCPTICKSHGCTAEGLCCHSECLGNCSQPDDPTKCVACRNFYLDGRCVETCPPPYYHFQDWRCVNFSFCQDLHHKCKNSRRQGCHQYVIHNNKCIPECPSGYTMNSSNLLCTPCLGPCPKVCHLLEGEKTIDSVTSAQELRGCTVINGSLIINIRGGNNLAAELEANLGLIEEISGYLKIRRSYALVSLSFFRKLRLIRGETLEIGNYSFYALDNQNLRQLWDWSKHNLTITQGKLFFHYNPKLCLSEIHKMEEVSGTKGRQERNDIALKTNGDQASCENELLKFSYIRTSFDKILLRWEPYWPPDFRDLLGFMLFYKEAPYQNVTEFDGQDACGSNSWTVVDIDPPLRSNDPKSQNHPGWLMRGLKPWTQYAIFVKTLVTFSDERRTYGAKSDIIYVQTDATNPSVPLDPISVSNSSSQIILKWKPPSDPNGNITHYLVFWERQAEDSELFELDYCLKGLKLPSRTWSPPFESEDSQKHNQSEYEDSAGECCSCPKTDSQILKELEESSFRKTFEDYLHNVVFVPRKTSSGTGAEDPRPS
Insulin receptor (Homo sapiens), sequence (P06213 763-1382 limits assumed): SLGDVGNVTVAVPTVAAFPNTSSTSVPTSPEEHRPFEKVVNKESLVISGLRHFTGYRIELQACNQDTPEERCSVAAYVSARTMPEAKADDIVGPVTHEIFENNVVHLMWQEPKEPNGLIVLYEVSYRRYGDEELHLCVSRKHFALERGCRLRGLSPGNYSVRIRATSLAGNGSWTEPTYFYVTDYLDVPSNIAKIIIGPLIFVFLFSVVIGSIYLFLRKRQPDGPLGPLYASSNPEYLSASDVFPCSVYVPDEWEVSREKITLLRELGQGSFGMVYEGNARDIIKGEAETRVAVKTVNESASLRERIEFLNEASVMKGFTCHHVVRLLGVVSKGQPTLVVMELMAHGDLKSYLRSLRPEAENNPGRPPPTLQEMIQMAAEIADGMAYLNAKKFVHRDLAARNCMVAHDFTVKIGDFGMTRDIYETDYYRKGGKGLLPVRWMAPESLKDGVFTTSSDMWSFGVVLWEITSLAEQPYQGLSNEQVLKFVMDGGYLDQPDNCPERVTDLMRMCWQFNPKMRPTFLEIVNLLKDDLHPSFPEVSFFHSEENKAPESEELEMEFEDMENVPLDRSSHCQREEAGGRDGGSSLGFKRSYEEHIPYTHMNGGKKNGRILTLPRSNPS
SNF-related serine/threonine-protein kinase (Homo sapiens), sequence (Q9NRH2 whole entry, the tested form may be a part): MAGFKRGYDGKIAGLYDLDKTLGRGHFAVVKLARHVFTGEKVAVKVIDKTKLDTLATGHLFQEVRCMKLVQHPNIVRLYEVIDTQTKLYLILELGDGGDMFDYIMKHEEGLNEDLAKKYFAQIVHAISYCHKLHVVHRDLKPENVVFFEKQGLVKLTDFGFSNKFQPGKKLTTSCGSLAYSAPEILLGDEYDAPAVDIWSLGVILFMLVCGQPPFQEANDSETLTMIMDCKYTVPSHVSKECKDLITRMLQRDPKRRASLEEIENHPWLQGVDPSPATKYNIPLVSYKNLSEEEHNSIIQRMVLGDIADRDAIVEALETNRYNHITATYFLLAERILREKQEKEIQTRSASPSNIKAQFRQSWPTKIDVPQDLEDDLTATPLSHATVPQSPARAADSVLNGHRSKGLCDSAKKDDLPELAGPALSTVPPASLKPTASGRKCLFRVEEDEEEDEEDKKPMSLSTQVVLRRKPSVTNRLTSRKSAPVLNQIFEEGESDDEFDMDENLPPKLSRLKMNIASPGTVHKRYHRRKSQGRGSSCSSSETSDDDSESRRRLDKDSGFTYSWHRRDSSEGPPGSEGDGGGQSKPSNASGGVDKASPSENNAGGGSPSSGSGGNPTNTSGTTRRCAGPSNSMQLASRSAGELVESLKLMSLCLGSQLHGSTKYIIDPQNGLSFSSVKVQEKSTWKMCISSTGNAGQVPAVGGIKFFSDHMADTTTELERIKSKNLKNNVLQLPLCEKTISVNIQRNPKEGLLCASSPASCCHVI
Serine/threonine-protein kinase tousled-like 2 (Homo sapiens), sequence (Q86UE8 whole entry, looked up, the tested form may be a part): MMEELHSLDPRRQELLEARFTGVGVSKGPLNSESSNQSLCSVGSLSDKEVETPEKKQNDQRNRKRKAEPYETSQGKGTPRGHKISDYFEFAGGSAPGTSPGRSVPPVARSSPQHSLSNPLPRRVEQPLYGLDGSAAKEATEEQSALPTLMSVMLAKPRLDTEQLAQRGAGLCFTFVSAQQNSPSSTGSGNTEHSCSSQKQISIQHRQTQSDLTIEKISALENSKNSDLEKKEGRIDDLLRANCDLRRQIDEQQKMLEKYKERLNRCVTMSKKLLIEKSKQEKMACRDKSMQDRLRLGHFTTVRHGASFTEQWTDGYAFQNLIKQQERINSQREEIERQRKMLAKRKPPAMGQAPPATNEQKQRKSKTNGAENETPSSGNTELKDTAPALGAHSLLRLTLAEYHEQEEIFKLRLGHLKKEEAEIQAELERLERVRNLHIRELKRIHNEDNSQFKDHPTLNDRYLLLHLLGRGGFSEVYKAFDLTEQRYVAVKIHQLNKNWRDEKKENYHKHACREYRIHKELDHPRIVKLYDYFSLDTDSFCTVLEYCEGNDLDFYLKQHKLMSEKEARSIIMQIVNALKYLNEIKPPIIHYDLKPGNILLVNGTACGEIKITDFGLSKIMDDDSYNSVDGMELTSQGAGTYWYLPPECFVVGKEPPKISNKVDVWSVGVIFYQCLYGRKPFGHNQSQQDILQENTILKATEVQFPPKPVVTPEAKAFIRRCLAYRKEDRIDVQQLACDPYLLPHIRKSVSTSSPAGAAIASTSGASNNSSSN

| Structure (SMILES) | Activity [1] [%] | Activity [2] [%] | Activity [3] [%] | Activity [4] [%] | Activity [5] [%] | Activity [6] [%] | Activity [7] [%] | Activity [8] [%] | Activity [9] [%] | Activity [10] [%] | Activity [11] [%] | Activity [12] [%] | Activity [13] [%] | Activity [14] [%] | Activity [15] [%] | Activity [16] [%] | Activity [17] [%] | Activity [18] [%] | Activity [19] [%] | Activity [20] [%] | also measured |
| --- | --- | --- | --- | --- | --- | --- | --- | --- | --- | --- | --- | --- | --- | --- | --- | --- | --- | --- | --- | --- | --- |
| COc1ccc(-c2cc3c(N[C@@H]4CC[C@](C)(N)C4(C)C)c(C(N)=O)cnn3c2)cn1 | 97 | 90 | 100 | 100 | 92 | 98 | 100 | 97 | 97 | 100 | 42 | 93 | 98 | 95 | 100 | 88 | 72 | 96 | 97 | 96 | Activity [21]: 100%; Activity [22]: 81%; Activity [23]: 92%; Activity [24]: 98%; Activity [25]: 100% |
| CC1(C)[C@H](Nc2c(C(N)=O)cnn3cc(-c4ccccc4)cc23)CC[C@]1(C)N | 100 | 83 | 59 | 100 | 100 | 100 | 94 | 95 | 90 | 98 | 7.5 | 72 | 100 | 89 | 67 | 65 | 94 | 100 | 100 | 96 | Activity [21]: 83%; Activity [22]: 72%; Activity [23]: 100%; Activity [24]: 96%; Activity [25]: 90% |
